In patent US20060235036A1, “Vanilloid receptor ligands and their use in treatments” (priority 2005, published 2006):
Where a name gives a salt, the structure may show the parent alone.

Molecular target: T1, human VR1 (Homo sapiens, UniProt Q8NER1)
T1 construct: expressed in transfected cells
Assay: Human VR1 Capsaicin Antagonist Assay (45Ca2+ uptake, CHO cells stably expressing human VR1)
Type: cell-based
Details: capsaicin stimulus, Calcium-45 uptake
Protocol: Compounds may be assayed using Chinese Hamster Ovary cell lines stably expressing either human VR1 or rat VR1 under a CMV promoter. Cells can be cultured in Growth Medium, routinely passaged at 70% confluency using trypsin and plated in the assay plate 24 hours prior to compound evaluation. Possible Growth Medium: • DMEM, high glucose (Gibco 11965-084). • 10% Dialyzed serum (Hyclone SH30079.03). • 1× Non-Essential Amino Acids (Gibco 11140-050). • 1× Glutamine-Pen-Strep (Gibco 10378-016). • Geneticin, 450 μg/mL (Gibco 10131-035). Compounds can be diluted in 100% DMSO and tested for activity over several log units of concentration [40 μM-2 pM]. Compounds may be further diluted in HBSS buffer (pH 7.4) 0.1 mg/mL BSA, prior to evaluation. Final DMSO concentration in assay would be 0.5%. Each assay plate can be controlled with a buffer only and a known antagonist compound (either capsazepine or one of the described VR1 antagonists). Activation of VR1 can be achieved in these cellular assays using either a capsaicin stimulus (ranging from 0.1-1 μM) or by an acid stimulus (addition of 30 mM Hepes/Mes buffered at pH 4.1). Compounds may also tested in an assay format to evaluate their agonist properties at VR1. • Capsaicin Antagonist Assay: Compounds may be pre-incubated with cells (expressing either human or rat VR1) for 2 minutes prior to addition of Calcium-45 and Capsaicin and then left for an additional 2 minutes prior to compound washout. Capsaicin (0.5 […]) can be added in HAM's F12, 0.1 mg/mL BSA, 15 mM Hepes at pH 7.4. Final ^45Ca (Amersham CES3-2 mCi) at 10 μCi/mL. • Acid Antagonist Assay: Compounds can be pre-incubated with cells (expressing either human or rat VR1) for 2 minutes prior to addition of Calcium-45 in 30 mM Hepes/Mes buffer (Final Assay pH 5) and then left for an additional 2 minutes prior to compound washout. Final ^45Ca (Amersham CES3-2 mCi) at 10 μCi/mL. • Agonist Assay: Compounds can be incubated with cells (expressing either human or rat VR1) for 2 minutes in the presence of Calcium-45 prior to compound washout. Final ^45Ca (Amersham CES3-2 mCi) at 10 μCi/mL. • Compound Washout and Analysis: Assay plates can be washed using an ELX405 plate washer (Bio-Tek Instruments Inc.) immediately after functional assay. One can wash 3× with PBS Mg2^+/Ca^2+ free, 0.1 mg/mL BSA, aspirating between washes. Plates may be read using a MicroBeta Jet (Wallac Inc.). Compound activity may then calculated using appropriate computational algorithms.

T1 sequence (Q8NER1 whole entry): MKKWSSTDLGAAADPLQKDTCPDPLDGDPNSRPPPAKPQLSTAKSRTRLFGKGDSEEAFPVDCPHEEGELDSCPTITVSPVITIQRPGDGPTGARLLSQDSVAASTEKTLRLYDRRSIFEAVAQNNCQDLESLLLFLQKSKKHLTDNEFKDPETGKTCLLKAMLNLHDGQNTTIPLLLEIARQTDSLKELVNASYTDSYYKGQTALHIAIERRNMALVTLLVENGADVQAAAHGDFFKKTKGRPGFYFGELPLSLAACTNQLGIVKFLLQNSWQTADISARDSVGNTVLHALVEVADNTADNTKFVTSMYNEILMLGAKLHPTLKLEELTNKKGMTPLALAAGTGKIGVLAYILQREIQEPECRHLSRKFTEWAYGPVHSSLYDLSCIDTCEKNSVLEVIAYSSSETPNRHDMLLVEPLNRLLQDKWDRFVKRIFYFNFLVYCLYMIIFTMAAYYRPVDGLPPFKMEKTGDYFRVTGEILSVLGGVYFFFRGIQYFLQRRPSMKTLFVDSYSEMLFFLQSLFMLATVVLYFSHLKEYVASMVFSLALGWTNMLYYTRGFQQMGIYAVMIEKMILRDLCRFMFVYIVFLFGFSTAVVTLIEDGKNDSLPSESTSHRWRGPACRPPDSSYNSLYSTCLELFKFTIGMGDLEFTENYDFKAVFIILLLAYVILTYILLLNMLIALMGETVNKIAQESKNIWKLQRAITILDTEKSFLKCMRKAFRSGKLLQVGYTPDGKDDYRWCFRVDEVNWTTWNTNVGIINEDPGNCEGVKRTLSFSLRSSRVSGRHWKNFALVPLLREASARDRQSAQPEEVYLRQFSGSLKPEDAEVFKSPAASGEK

IC50, < 100 nM:
CC(C)CN1CCCCC1CNc1nc(C(F)(F)F)ccc1-c1cc(Nc2cccc3c2CC(O)CC3)ncn1 (mixture of isomers) [Example 1, (2R,S)-8-(6-(2-(((2R,S)-1-Isobutylpiperidin-2-yl)methylamino)-6-(trifluoro-methyl)pyridin-3-yl)pyrimidin-4-ylamino)-1,2,3,4-tetrahydronaphthalen-2-ol hydrochloride]
CC(C)(C)OC(=O)N1CCC[C@H]1C(=O)Nc1cc(C(F)(F)F)ccc1-c1cc(Nc2cccc3c2C[C@@H](O)CC3)ncn1 (mixture of isomers) [Example 2, (2S)-tert-Butyl 2-((2-(6-((7S)-7-hydroxy-5,6,7,8-tetrahydro-naphthalen-1-ylamino)pyrimidin-4-yl)-5-(trifluoromethyl)phenyl)-carbamoyl)-pyrrolidine-1-carboxylate and (2S)-tert-Butyl 2-((2-(6-((7S)-7-hydroxy-5,6,7,8-tetrahydro-naphthalen-1-ylamino)pyrimidin-4-yl)-5-(trifluoromethyl)phenyl)-carbamoyl)-pyrrolidine-1-carboxylate]
CC(C)N1CCC[C@H]1C(=O)Nc1cc(C(F)(F)F)ccc1-c1cc(Nc2cccc3c2C[C@@H](O)CC3)ncn1 (mixture of isomers) [Example 3, (2S)—N-(2-(6-(7S)-7-Hydroxy-5,6,7,8-tetrahydronaphthalen-1-ylamino)pyrimidin-4-yl)-5-(trifluoromethyl)phenyl)-1-isopropylpyrrolidine-2-carboxamide hydrochloride and (2S)—N-(2-(6-(7R)-7-Hydroxy-5,6,7,8-tetrahydro-naphthalen-1-ylamino)pyrimidin-4-yl)-5-(trifluoromethyl)phenyl)-1-isopropylpyrrolidine-2-carboxamide hydrochloride]
CC(C)N1CCC[C@H]1C(=O)Nc1cc(C(F)(F)F)ccc1-c1cc(Nc2cccc3c2C[C@H](O)CC3)ncn1 (mixture of isomers) [Example 3, (2S)—N-(2-(6-(7S)-7-Hydroxy-5,6,7,8-tetrahydronaphthalen-1-ylamino)pyrimidin-4-yl)-5-(trifluoromethyl)phenyl)-1-isopropylpyrrolidine-2-carboxamide hydrochloride and (2S)—N-(2-(6-(7R)-7-Hydroxy-5,6,7,8-tetrahydro-naphthalen-1-ylamino)pyrimidin-4-yl)-5-(trifluoromethyl)phenyl)-1-isopropylpyrrolidine-2-carboxamide hydrochloride]
CC1CC[C@@H](C(=O)Nc2cc(C(F)(F)F)ccc2-c2cc(Nc3cccc4c3CC(O)CC4)ncn2)N1 (mixture of isomers) [Example 4, (2S, 5R,S, 7R,S)—N-(2-(6-(7-Hydroxy-5,6,7,8-tetrahydronaphthalen-1-ylamino)pyrimidin-4-yl)-5-(trifluoromethyl)phenyl)-5-methylpyrrolidine-2-carboxamide hydrochloride]
CC(C)N1C(C)CC[C@H]1C(=O)Nc1cc(C(F)(F)F)ccc1-c1cc(Nc2cccc3c2CC(O)CC3)ncn1 (mixture of isomers) [Example 5, (2S, 5R,S, 7R,S)—N-(2-(6-(7-Hydroxy-5,6,7,8-tetrahydronaphthalen-1-ylamino)pyrimidin-4-yl)-5-(trifluoromethyl)phenyl)-1-isopropyl-5-methylpyrrolidine-2-carboxamide hydrochloride]
CC(C)CN1C(C)CC[C@H]1C(=O)Nc1cc(C(F)(F)F)ccc1-c1cc(Nc2cccc3c2CC(O)CC3)ncn1 (mixture of isomers) [Example 6, (2S, 5R,S, 7R,S)—N-(2-(6-(7-Hydroxy-5,6,7,8-tetrahydronaphthalen-1-ylamino)pyrimidin-4-yl)-5-(trifluoromethyl)phenyl)-1-isobutyl-5-methylpyrrolidine-2-carboxamide hydrochloride]
